Experiments:
Type in all cases: in vivo
[1] = tested on: Beet Armyworm (Spodoptera exigua, LAPHEG); assay: Bioassays on Beet Armyworm (BAW), 128-well diet tray assay; settings: Spodoptera exigua; Table ABC: Biological Results; species BAW; read-out: BAW
Summary of the method: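 Diet-overlay assay: 50 μg/cm^2 compound applied in 90:10 acetone-water to artificial diet, allowed to dry, then infested with 1–5 L2 larvae/well; 8 wells/compound; covered, vented; 25° C., 14:10 L:D, 5–7 d; % mortality per well, averaged.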

[2] = tested on: Yellow Fever Mosquito (Aedes aegypti, AEDSAE); settings: Table ABC: Biological Results; species YFM
Summary of the method: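 Compounds from 4000 ppm DMSO stocks were diluted in 90:10 water/acetone and dispensed into wells, then infested with about 1-day-old larvae in liver-powder water. Covered plates were held at room temperature for 3 days and each well was scored for mortality against a rating scale; six replicate plates per compound.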

[3] = tested on: Cabbage Looper (Trichoplusia ni, TRIPNI); assay: Bioassays on Cabbage Looper (CL), 128-well diet tray assay; settings: Trichoplusia ni; Table ABC: Biological Results; species CL; read-out: CL
Summary of the method: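 Second-instar larvae (1–5 per well) placed on artificial diet surface-treated with 50 μg/cm^2 test molecule applied in 90:10 acetone-water and dried. Held at 25° C., 14:10 light-dark, for five to seven days. Percent mortality scored per well and averaged over eight wells.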

Structure (SMILES) | pest or weed control at 50 µg/cm2 [1] [%] | YFM [2] | pest or weed control at 50 µg/cm2 [3] [%]
O=C(Nc1ccc(F)cc1F)c1cc(NC(=O)[C@H]2[C@@H](c3cc(Cl)c(F)c(Cl)c3)C2(Cl)Cl)ccc1Cl (relative stereo) [F1173, cis-2-Chloro-5-(2,2-dichloro-3-(3,5-dichloro-4-fluorophenyl)cyclopropane-1-carboxamido)-N-(2,4-difluorophenyl)benzamide] | 50 to 100 | A (80–100) | 50 to 100
Cc1cc(NCc2ccccc2)ccc1NC(=O)c1cc(NC(=O)[C@H]2[C@H](c3cc(Cl)cc(Cl)c3)C2(Cl)Cl)ccc1Cl (relative stereo) [F1176, trans-N-(4-(Benzylamino)-2-methylphenyl)-2-chloro-5-(2,2-dichloro-3-(3,5-dichlorophenyl)cyclopropane-1-carboxamido)benzamide] | 50 to 100 | A (80–100) | 50 to 100
Nc1c(F)ccc(NC(=O)c2cc(NC(=O)[C@H]3[C@H](c4cc(Cl)c(F)c(Cl)c4)C3(Cl)Cl)ccc2Cl)c1F (relative stereo) [F1181, trans-N-(3-Amino-2,4-difluorophenyl)-2-chloro-5-(2,2-dichloro-3-(3,5-dichloro-4-fluorophenyl)cyclopropane-1-carboxamido)benzamide] | 50 to 100 | A (80–100) | 50 to 100
Nc1c(F)ccc(NC(=O)c2cc(NC(=O)[C@H]3[C@@H](c4cc(Cl)c(F)c(Cl)c4)C3(Cl)Cl)ccc2Cl)c1F (relative stereo) [F1182, cis-N-(3-Amino-2,4-difluorophenyl)-2-chloro-5-(2,2-dichloro-3-(3,5-dichloro-4-fluorophenyl)cyclopropane-1-carboxamido)benzamide] | 50 to 100 | A (80–100) | 50 to 100
Cc1cc(NC(=O)[C@H]2[C@H](c3ccc(F)c(Cl)c3)C2(Cl)Cl)cc(C(=O)Nc2ccccc2)c1Cl (relative stereo) [F1183, trans-2-Chloro-5-(2,2-dichloro-3-(3-chloro-4-fluorophenyl)cyclopropane-1-carboxamido)-3-methyl-N-phenylbenzamide] | 50 to 100 | A (80–100) | 50 to 100
Cc1cc(NC(=O)[C@H]2[C@H](c3ccc(F)c(Cl)c3)C2(Cl)Cl)cc(C(=O)Nc2ccc(F)cc2)c1Cl (relative stereo) [F1184, trans-2-Chloro-5-(2,2-dichloro-3-(3-chloro-4-fluorophenyl)cyclopropane-1-carboxamido)-N-(4-fluorophenyl)-3-methylbenzamide] | 50 to 100 | A (80–100) | 50 to 100
CC(=O)Nc1ccc(NC(=O)c2cc(NC(=O)[C@H]3[C@H](c4ccc(F)c(Cl)c4)C3(Cl)Cl)cc(C)c2Cl)cc1 (relative stereo) [F1186, trans-N-(4-Acetamidophenyl)-2-chloro-5-(2,2-dichloro-3-(3-chloro-4-fluorophenyl)cyclopropane-1-carboxamido)-3-methylbenzamide] | 50 to 100 | A (80–100) | 50 to 100
Cc1c(Cl)cc(NC(=O)[C@H]2[C@H](c3ccc(F)c(Cl)c3)C2(Cl)Cl)cc1C(=O)Nc1ccccc1 (relative stereo) [F1188, trans-3-Chloro-5-(2,2-dichloro-3-(3-chloro-4-fluorophenyl)cyclopropane-1-carboxamido)-2-methyl-N-phenylbenzamide] | 50 to 100 | A (80–100) | 50 to 100
Cc1c(Cl)cc(NC(=O)[C@H]2[C@H](c3ccc(F)c(Cl)c3)C2(Cl)Cl)cc1C(=O)Nc1ccc(F)cc1 (relative stereo) [F1189, trans-3-Chloro-5-(2,2-dichloro-3-(3-chloro-4-fluorophenyl)cyclopropane-1-carboxamido)-N-(4-fluorophenyl)-2-methylbenzamide] | 50 to 100 | A (80–100) | 50 to 100
CC(=O)Nc1ccc(NC(=O)c2cc(NC(=O)[C@H]3[C@H](c4ccc(F)c(Cl)c4)C3(Cl)Cl)cc(Cl)c2C)cc1 (relative stereo) [F1191, trans-N-(4-Acetamidophenyl)-3-chloro-5-(2,2-dichloro-3-(3-chloro-4-fluorophenyl)cyclopropane-1-carboxamido)-2-methylbenzamide] | 50 to 100 | A (80–100) | 50 to 100
O=C(Nc1ccccc1)c1cc(NC(=O)[C@H]2[C@H](c3ccc(F)c(Cl)c3)C2(Cl)Cl)cc(C(F)(F)F)c1Cl (relative stereo) [F1212, trans-2-Chloro-5-(2,2-dichloro-3-(3-chloro-4-fluorophenyl)cyclopropane-1-carboxamido)-N-phenyl-3-(trifluoromethyl)benzamide] | 50 to 100 | A (80–100) | 50 to 100
O=C(Nc1ccc(F)cc1)c1cc(NC(=O)[C@H]2[C@H](c3ccc(F)c(Cl)c3)C2(Cl)Cl)cc(C(F)(F)F)c1Cl (relative stereo) [F1214, trans-2-Chloro-5-(2,2-dichloro-3-(3-chloro-4-fluorophenyl)cyclopropane-1-carboxamido)-N-(4-fluorophenyl)-3-(trifluoromethyl)benzamide] | 50 to 100 | A (80–100) | 50 to 100
O=C(Nc1ccc(F)cc1F)c1cc(NC(=O)[C@H]2[C@H](c3ccc(F)c(Cl)c3)C2(Cl)Cl)cc(C(F)(F)F)c1Cl (relative stereo) [F1215, trans-2-Chloro-5-(2,2-dichloro-3-(3-chloro-4-fluorophenyl)cyclopropane-1-carboxamido)-N-(2,4-difluorophenyl)-3-(trifluoromethyl)benzamide] | 50 to 100 | A (80–100) | 50 to 100
CC(=O)Nc1ccc(NC(=O)c2cc(NC(=O)[C@H]3[C@H](c4ccc(F)c(Cl)c4)C3(Cl)Cl)cc(C(F)(F)F)c2Cl)cc1 (relative stereo) [F1216, trans-N-(4-Acetamidophenyl)-2-chloro-5-(2,2-dichloro-3-(3-chloro-4-fluorophenyl)cyclopropane-1-carboxamido)-3-(trifluoromethyl)benzamide] | 50 to 100 | A (80–100) | 50 to 100
COc1c(F)cc(NC(=O)[C@H]2[C@H](c3ccc(F)c(Cl)c3)C2(Cl)Cl)cc1C(=O)Nc1ccc(F)cc1 (relative stereo) [F1218, trans-5-(2,2-Dichloro-3-(3-chloro-4-fluorophenyl)cyclopropane-1-carboxamido)-3-fluoro-N-(4-fluorophenyl)-2-methoxybenzamide] | 50 to 100 | A (80–100) | 50 to 100
COc1c(F)cc(NC(=O)[C@H]2[C@H](c3ccc(F)c(Cl)c3)C2(Cl)Cl)cc1C(=O)Nc1ccc(F)cc1F (relative stereo) [F1219, trans-5-(2,2-Dichloro-3-(3-chloro-4-fluorophenyl)cyclopropane-1-carboxamido)-N-(2,4-difluorophenyl)-3-fluoro-2-methoxybenzamide] | 50 to 100 | A (80–100) | 50 to 100
COc1c(F)cc(NC(=O)[C@H]2[C@H](c3ccc(F)c(Cl)c3)C2(Cl)Cl)cc1C(=O)Nc1ccc(NC(C)=O)cc1 (relative stereo) [F1220, trans-N-(4-Acetamidophenyl)-5-(2,2-dichloro-3-(3-chloro-4-fluorophenyl)-cyclopropane-1-carboxamido)-3-fluoro-2-methoxybenzamide] | 50 to 100 | A (80–100) | 50 to 100
Cc1c(N)ccc(NC(=O)c2cc(NC(=O)[C@H]3[C@H](c4cc(Cl)cc(Cl)c4)C3(Cl)Cl)ccc2Cl)c1C (relative stereo) [F1229, trans-N-(4-amino-2,3-dimethylphenyl)-2-chloro-5-(2,2-dichloro-3-(3,5-dichlorophenyl)cyclopropane-1-carboxamido)benzamide] | 50 to 100 | A (80–100) | 50 to 100
O=C(Nc1ccc(F)cc1F)c1cc(NC(=O)[C@H]2[C@H](c3cc(Cl)cc(S(F)(F)(F)(F)F)c3)C2(Cl)Cl)ccc1Cl (relative stereo) [F1232, trans-2-chloro-5-(2,2-dichloro-3-(3-chloro-5-(pentafluoro-λ^6-sulfanyl)phenyl)cyclopropane-1-carboxamido)-N-(2,4-difluorophenyl)benzamide] | 50 to 100 | A (80–100) | 50 to 100
Nc1c(F)ccc(NC(=O)c2cc(NC(=O)[C@H]3[C@H](c4cc(Cl)cc(S(F)(F)(F)(F)F)c4)C3(Cl)Cl)ccc2Cl)c1F (relative stereo) [F1259, trans-N-(3-Amino-2,4-difluorophenyl)-2-chloro-5-(2,2-dichloro-3-(3-chloro-5-(pentafluoro-λ^6-sulfanyl)phenyl)cyclopropane-1-carboxamido)benzamide] | 50 to 100 | A (80–100) | 50 to 100

Source: patent US20250228239A1, “MOLECULES HAVING PESTICIDAL UTILITY, AND INTERMEDIATES, COMPOSITIONS, AND PROCESSES, RELATED THERETO” (priority 2024, published 2025)
